How the values were obtained:
[1] = tested on: Ba/F3 SLC34A2/ROS1-G2032R cell line; assay: In vitro cytological inhibitory activity (Celltiter-Glo assay); format: cell-based; settings: Mus musculus, BaF3, Ba/F3 SLC34A2/ROS1-G2032R cells, 72 hrs
Method: The cell lines used in the experiment have the following meanings: • Ba/F3 SLC34A2/ROS1-G2032R cell line: • a stable expression cell line of Ba/F3 cells transfected with SLC34A2/ROS1-G2032R. Experimental Method (Celltiter-Glo Assay) 1. Cell Culture and Inoculation
(§1) All cells were suspension cells and the medium was RPMI-1640+10% FBS, and cells were tested in a logarithmic growth phase.
(§2) Cells in the logarithmic growth phase were collected and counted using a […]. The cell viability was detected by the trypan blue exclusion method, and the cell viability was kept over 90%. The cell concentration was adjusted to be in a proper range; 90 μL of the cell suspension was added to a 96-well plate.
(§3) The stock solutions of test compounds were diluted from 10 mM to 1 mM with DMSO and then serially diluted in a 3.16-fold gradient for 9 concentrations. The 2 μL DMSO-gradient diluted compound solutions were added to 98 μL culture solutions to give working stock solutions of test compounds (compound concentration was 10-fold higher than the final concentration, DMSO concentration was 1%, maximum concentration was 10 μM).
(§4) • 10 μL of compound working stock solution was added to each well in the 96-well plate inoculated with cells (10-fold dilution, final DMSO concentration was 0.1%).
The final concentrations of test compounds were: 1000 nM, 316 nM, 100 nM, 31.6 nM, 10 nM, 3.16 nM, 1 nM, 0.316 nM and 0.1 nM.
(§5) The cells were cultured in a cell culture incubator at 5% CO2 for 72 hrs.
(§6) The CTG reagent was thawed and the cell plate was equilibrated to room temperature for 30 mins, 100 μL of reagent (Celltiter Glo assay kit) was added to each well, shaking was performed for 5 mins with a shaker (in the absence of light), and the plate was incubated at room temperature for 20 mins (in the absence of light). The light signal values were read on the multi-functional microplate reader.
• 1) Cell viability (%)=(test compound well reading−blank well reading)/(DMSO solvent control well reading−blank well reading)×100%; • 2) a curve was plotted with GraphPad Prism 5.0 and IC50 was obtained.

[2] = tested on: Ba/F3 LMNA-NTRK1-G595R cell line; assay: In vitro cytological inhibitory activity (CelltiterGlo assay); format: cell-based; settings: Mus musculus, BaF3, Ba/F3 LMNA-NTRK1-G595R cells, 72 hrs
Method: (§7) The cell lines used in the experiment have the following meanings: Ba/F3 LMNA-NTRK1-G595R cell line: • a stable expression cell line of Ba/F3 cells transfected with LMNA-NTRK1 G595R; Ba/F3 ETV6-NTRK3-G623R cell line: • a stable expression cell line of Ba/F3 cells transfected with ETV6-NTRK3-G623R. Experimental Method (CelltiterGlo Assay) 1. Cell Culture and Inoculation
as §1, §2
as §3, with “3-fold” for “3.16-fold”
as §4, §5
as §6, with “60” for “100”, “2” for “5”, “10” for “20”
(§8) • 1) Inhibition (%)=(DMSO solvent control well reading−test compound well reading)/(DMSO solvent control well reading−blank well reading)×100%; • 2) a curve was plotted with GraphPad Prism 5.0 and IC50 was obtained.

[3] = tested on: Ba/F3 ETV6-NTRK3-G623R cell line; assay: as above; format: cell-based; settings: Mus musculus, BaF3, Ba/F3 ETV6-NTRK3-G623R cells, 72 hrs
Method: as §7, §1, §2
as §3, with “3-fold” for “3.16-fold”
as §4, §5
as §6, with “60” for “100”, “2” for “5”, “10” for “20”
as §8

[4] = tested on: BaF3-LMNA-NTRK1-G595R stable cell strain xenograft tumor; assay: Efficacy study on BaF3-LMNA-NTRK1-G595R stable cell strain subcutaneous xenograft model; format: in vivo, mice (NOD-SCID); settings: bid, p.o., 7 days
Method: The RPMI 1640 serum-free medium resuspended BaF3 LMNA-NTRK1-G595R stable cell strains were inoculated subcutaneously in the right scapular region of mice (NOD-SCID) at 1×10^6 cells/mouse (0.1 mL/mouse).
When the average tumor volume was around 500 mm^3, the groups were randomized into vehicle group, Compound 3 group (10 mg/kg, 5 mg/kg, 3 mg/kg, 1 mg/kg, bid) and LOXO-195 group (30 mg/kg, 10 mg/kg, 3 mg/kg, bid).

Compound	IC50 [1] [nM]	IC50 [2] [nM]	IC50 [3] [nM]	T/C (%) ([4]; Experiment 1, 3 mg/Kg)	TGI (%) ([4]; Experiment 1, 3 mg/Kg)	also measured
C[C@@H]1CCc2ncc(F)cc2[C@H]2CCCN2c2ccc3ncn(c3n2)C(=O)N1 (single isomer, unassigned) [Compound 11]	4.2	2	1.9	–	–	–
C[C@@H]1CCc2ncc(F)cc2[C@H]2CCCN2c2ccn3ncc(c3n2)C(=O)N1 [LOXO-195, reference compound]	–	–	–	93.6	6.4	T/C (%) ([4]; Experiment 1, 10 mg/Kg): 63.1%; TGI (%) ([4]; Experiment 1, 10 mg/Kg): 36.9%; T/C (%) ([4]; Experiment 2, 30 mg/Kg): 0%; TGI (%) ([4]; Experiment 2, 30 mg/Kg): 100%
C[C@@H]1COc2ncc(F)cc2[C@H]2CCCN2c2ccc3ncn(c3n2)C(=O)N1 (single isomer, unassigned) [Compound 3]	2.3	0.6	1	73.2	26.8	T/C (%) ([4]; Experiment 2, 1 mg/Kg): 53.7%; TGI (%) ([4]; Experiment 2, 1 mg/Kg): 46.3%; T/C (%) ([4]; Experiment 2, 5 mg/Kg): 0%; TGI (%) ([4]; Experiment 2, 5 mg/Kg): 100%; T/C (%) ([4]; Experiment 2, 10 mg/Kg): 0%; TGI (%) ([4]; Experiment 2, 10 mg/Kg): 100%
C[C@H]1COc2ncc(F)cc2[C@@H](C)Nc2ccc3ncn(c3n2)C(=O)N1 [Compound 13, (3R,7S)-4^5-fluoro-3,7-dimethyl-1^3H-5-oxa-2,8-diaza-1(5,3)-imidazo[4,5-b]pyridina-4(3,2)-pyridinacyclononphan-9-one]	6.7	17.3	18.9	–	–	–
C[C@H]1COc2ncc(F)cc2[C@H]2CCCN2c2ccc3ncn(c3n2)C(=O)N1 (single isomer, unassigned) [Compound 2]	–	0.6	1	–	–	–
